Reference: article PMC11051198, “Synthesis and Late-Stage Modification of (−)-Doliculide Derivatives Using Matteson’s Homologation Approach” (Marine Drugs, 2024)

How the values were obtained:
CHO-K1 = assay: MTT cytotoxicity assay, CHO-K1; type: cell-based; details: CHO-K1 mutagenized Chinese hamster ovary, 5 d incubation, 37 °C, 5% CO2, DMEM + 10% FBS, mean ± SD of two independent measurements
Method: (§1) The cell cultures were cultivated at 37 °C under an atmosphere containing 5% CO2. Before usage, Dulbecco’s Modified Eagle Medium (DMEM) from Gibco (Thermo Fisher Scientific) was supplemented with 10% fetal bovine serum (FBS) from Gibco. Cells were used between passage 5 and 30 and were split separately for at least two passages to obtain biological repeats. Cells were washed with PBS and 0.5 mL trypsin was added before treatment. Cells were then incubated for 5 min before adding 10 mL medium containing 10% FBS. Per well, 120 µL cell suspension 5 × 10^4 cells/mL (CHO-K1, HCT-116. U-2 OS, KB3.1) or 1 × 10^5 cells/mL (HepG2) cells were seeded in transparent 96-well cell bind plate and incubated for 2 h at 37 °C and an atmosphere of 5% CO2. Each compound was tested in a serial dilution so that the starting concentration is 111 µg/mL, which is diluted by 1:3 as well as the internal solvent control prepared in DMEM with 10% FBS. After 5 d incubation at 37 °C and an atmosphere of 5% CO2, 20 μL of 5 mg/mL MTT (thiazolyl blue tetrazolium bromide) in PBS was added per well and cells were further incubated until coloration of the cells. The medium was then discarded and 100 μL 2-propanol/10 N HCl (250:1) added to the cells. The plates were analyzed by measuring the absorbance at 570 nm and 630 nm as reference using a microplate reader Infinite® 200 Pro from Tecan (Männedorf, Switzerland). Absorption is then converted to cell viability expressed as percentage relative to the respective solvent control. The calculated percentage of growth inhibition were determined by sigmoidal curve fitting using GraphPad (Boston, MA, USA) Prism software (version 10.0.2). Two independent measurements were generated for mean and standard deviation.

U-2 OS = assay: MTT cytotoxicity assay, U-2 OS; type: cell-based; details: U-2 OS human bone osteosarcoma, 5 d incubation, 37 °C, 5% CO2, DMEM + 10% FBS, mean ± SD of two independent measurements
Method: as §1

KB3.1 = assay: MTT cytotoxicity assay, KB3.1; type: cell-based; details: KB3.1 human epidermoid carcinoma cell line, 5 d incubation, 37 °C, 5% CO2, DMEM + 10% FBS, mean ± SD of two independent measurements
Method: as §1

HeLa-S3 cells = details: ref [1]; cited from earlier work
Method: Isolation of (−)-doliculide (Figure 1) from the Japanese sea hare, Dolabella auricularia, was first reported almost 30 years ago by Yamada et al., along with its potent cytotoxicity against HeLa-S3 cells (IC50 = 1 ng/mL). […] Due to their biological activities as anticancer agents, naturally derived cyclopeptides are interesting candidates for drug development, and so ...

HCT-116 = assay: MTT cytotoxicity assay, HCT-116; type: cell-based; details: HCT-116 human colon carcinoma, 5 d incubation, 37 °C, 5% CO2, DMEM + 10% FBS, mean ± SD of two independent measurements
Method: as §1

HepG2 = assay: MTT cytotoxicity assay, HepG2; type: cell-based; details: HepG2 human hepatocellular carcinoma, 5 d incubation, 37 °C, 5% CO2, DMEM + 10% FBS, mean ± SD of two independent measurements
Method: as §1

[1] = ≤ values: individual results varied widely, given as a range

| Compound | IC50 (CHO-K1) | IC50 (U-2 OS; [1]) | IC50 (KB3.1; [1]) | cytotoxicity against HeLa-S3 cells, IC50 (HeLa-S3 cells) | IC50 (HCT-116; [1]) | IC50 (HepG2) | IC50 (U-2 OS) | IC50 (KB3.1) | IC50 (HCT-116) |
| --- | --- | --- | --- | --- | --- | --- | --- | --- | --- |
| CC(C)[C@@H]1C[C@H](O)[C@H](C)C[C@H](C)C[C@H](C)C(=O)NCC(=O)N(C)[C@H](Cc2ccc(O)c(I)c2)C(=O)O1 [A, (−)-Doliculide] | 0.111 ± 0.0045 µM | 0.0252 ± 0.0018 µM | 0.038 ± 0.0099 µM | 1 ng/mL | 0.0088 ± 0.0005 µM | 0.0164 ± 0.0042 µM |  |  |  |
| CCOC(=O)CCSCCC[C@@H]1C[C@H](O)[C@H](C)C[C@H](C)C[C@H](C)C(=O)NCC(=O)N(C)[C@H](Cc2ccc(O)c(I)c2)C(=O)O1 [Compound 11d, Ethyl 3-({3-[(3R,9S,11S,13R,14S,16R)-14-hydroxy-3-(4-hydroxy-3-iodobenzyl)-4,9,11,13-tetramethyl-2,5,8-trioxo-1-oxa-4,7-diazacyclohexadecan-16-yl]propyl}-thio)propanoate] | 9.84 ± 3.87 µM |  |  |  | 0.06 ± 0.013 µM | > 49.4 µM | 4.9 ± 3.87 µM | 3.93 ± 1.14 µM |  |
| Benzyl 2-(4-{[(3R,9S,11S,13R,14S,16R)-14-hydroxy-3-(4-hydroxy-3-iodobenzyl)-4,9,11,13-tetramethyl-2,5,8-trioxo-1-oxa-4,7-diazacyclohexadecan-16-yl]methyl}-1H-1,2,3-triazol-1-yl)acetate [Compound 9c] | 23.8 ± 0.5 µM |  |  |  |  | > 46 µM | 14.4 ± 1.3 µM | 21.9 ± 12.6 µM | 3.81 ± 1 µM |
